# Measurements: patent publication US10758549B2, “Compositions of obeticholic acid and methods of use” (Intercept Pharmaceuticals, Inc., priority 2015, dated 2020)
# Several values for one entry are separate records, joined by “and”; a condition that tells them apart may be missing. Equal entries are not always repeated.
# How the values were obtained:
# [1] = target: T1, farnesoid X receptor (FXR) (Homo sapiens, UniProt Q96RI1); conditions: in vitro / on FXR; cited from earlier work
# T1 sequence (Q96RI1 1-486): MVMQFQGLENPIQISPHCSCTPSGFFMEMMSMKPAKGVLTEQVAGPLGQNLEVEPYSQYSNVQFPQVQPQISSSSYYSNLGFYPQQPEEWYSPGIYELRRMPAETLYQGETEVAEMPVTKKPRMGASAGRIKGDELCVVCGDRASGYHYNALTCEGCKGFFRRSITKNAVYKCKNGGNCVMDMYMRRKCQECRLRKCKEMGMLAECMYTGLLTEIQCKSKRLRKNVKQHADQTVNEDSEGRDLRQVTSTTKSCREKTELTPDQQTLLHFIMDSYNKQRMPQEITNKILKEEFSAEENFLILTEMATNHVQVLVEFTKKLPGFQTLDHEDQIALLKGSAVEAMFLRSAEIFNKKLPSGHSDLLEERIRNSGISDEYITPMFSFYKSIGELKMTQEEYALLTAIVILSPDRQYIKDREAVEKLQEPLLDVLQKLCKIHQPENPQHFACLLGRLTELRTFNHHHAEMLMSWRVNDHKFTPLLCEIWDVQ
# [2] = Particle size distribution, dry dispersion laser diffraction (Sympatec); assay type: physicochemical; conditions: for D10 / D25 / D50 / D75 / D90 / D95: in µm (unit assumed); for PSD X10 / PSD X50 / PSD X90: spiral jet mill, JetPharma
# Method: Particle size of agglomeration was identified as playing a primary role in the release rate and dissolution and variability in the blend uniformity and content uniformity of the tablet formulations. In order to obtain an appropriate particle size distribution (PSD), milling of obeticholic acid was investigated. The particle size of the formulations was reduced using comilling and jet milling to improve its dissolution release profile. Particle size analysis was performed using a dry dispersion method and analyzed by laser diffraction using Sympatec equipment.
# Particle size distribution was assessed using a dry dispersion method analyzed by laser diffraction using a Sympatec Laser Helos/KF-Magic F71000 with Rodos Dispersing Unit. The OCA sample (0.5 g sample) was tested as a dry powder. The parameters for the validated particle size analysis method are described below:
# Apparatus: Sympatec Laser Helos/KF-Magic F71000 with Rodos Dispersing Unit, Vibri sampling unit with Sniffer rotation, Nilfisk exhaustion or equivalent.
# Dispersing principle: Dry.
# [3] = Surface area by BET; assay type: physicochemical
# Method: The impact of jet-milling on API particle size and surface area is detailed in Table 4-1 and Table 4-2, respectively. Surface area was tested per a BET (Brunauer, Emmett, and Teller theory). The BET method for analyzing surface area is based on adsorption of gas on a surface. The amount of gas adsorbed at a given pressure allows a determination of the surface area.
# [4] = Before jet-milling (unmicronized)
smiles,measurement,setting,value
CCC1C(O)C2C3CCC(C(C)CCC(=O)O)C3(C)CCC2C2(C)CCC(OC3OC(C(=O)O)C(O)C(O)C3O)CC12 (stereo not drawn) [3-glucuronide],pharmacological activity relative to OCA (parent drug),[1],minimal pharmacologic activity
CC[C@H]1[C@@H](O)[C@@H]2[C@H](CC[C@]3(C)[C@@H]([C@H](C)CCC(=O)O)CC[C@@H]23)[C@@]2(C)CC[C@@H](O)C[C@@H]12 [Comilled with 0.46 mm screen],D10,[2],5.7
same,D25,[2],122.9
same,D50,[2],217.5
same,D75,[2],283.0
same,D90,[2],335.1
same,D95,[2],360.3
CC[C@H]1[C@@H](O)[C@@H]2[C@H](CC[C@]3(C)[C@@H]([C@H](C)CCC(=O)O)CC[C@@H]23)[C@@]2(C)CC[C@@H](O)C[C@@H]12 [Comilled with 0.61 mm screen],D10,[2],5.5 and 4.1
same,D25,[2],106.6 and 102.2
same,D50,[2],223.2 and 263.1
same,D75,[2],320.8 and 351.0
same,D90,[2],393.8 and 410.9
same,D95,[2],429.8 and 447.9
CC[C@H]1[C@@H](O)[C@@H]2[C@H](CC[C@]3(C)[C@@H]([C@H](C)CCC(=O)O)CC[C@@H]23)[C@@]2(C)CC[C@@H](O)C[C@@H]12 [Comilled with 1.14 mm screen],D10,[2],7.9
same,D25,[2],73.9
same,D50,[2],239.3
same,D75,[2],340.8
same,D90,[2],412.0
same,D95,[2],452.7
CC[C@H]1[C@@H](O)[C@@H]2[C@H](CC[C@]3(C)[C@@H]([C@H](C)CCC(=O)O)CC[C@@H]23)[C@@]2(C)CC[C@@H](O)C[C@@H]12 [JP1307001],PSD X10,[2],X10: 1 μm
same,PSD X50,[2],X50: 5 μm
same,PSD X90,[2],X90: 20 μm
CC[C@H]1[C@@H](O)[C@@H]2[C@H](CC[C@]3(C)[C@@H]([C@H](C)CCC(=O)O)CC[C@@H]23)[C@@]2(C)CC[C@@H](O)C[C@@H]12 [JP1408001],PSD X10,[2],X10: 1 μm
same,PSD X50,[2],X50: 5 μm
same,PSD X90,[2],X90: 19 μm
CC[C@H]1[C@@H](O)[C@@H]2[C@H](CC[C@]3(C)[C@@H]([C@H](C)CCC(=O)O)CC[C@@H]23)[C@@]2(C)CC[C@@H](O)C[C@@H]12 [JP1408002],PSD X10,[2],X10: 1 μm
same,PSD X50,[2],X50: 4 μm
same,PSD X90,[2],X90: 14 μm
CC[C@H]1[C@@H](O)[C@@H]2[C@H](CC[C@]3(C)[C@@H]([C@H](C)CCC(=O)O)CC[C@@H]23)[C@@]2(C)CC[C@@H](O)C[C@@H]12 [JP1408003],PSD X10,[2],X10: 1 μm
same,PSD X50,[2],X50: 4 μm
same,PSD X90,[2],X90: 15 μm
"CC[C@H]1[C@@H](O)[C@@H]2[C@H](CC[C@]3(C)[C@@H]([C@H](C)CCC(=O)O)CC[C@@H]23)[C@@]2(C)CC[C@@H](O)C[C@@H]12 [Jet mill, classifier speed 2000 rpm]",D16,[2],2.3 µm
same,D84,[2],57.2 µm
same,D99,[2],97.9 µm
same,D10,[2],1.7
same,D50,[2],10.9
same,D90,[2],69.3
"CC[C@H]1[C@@H](O)[C@@H]2[C@H](CC[C@]3(C)[C@@H]([C@H](C)CCC(=O)O)CC[C@@H]23)[C@@]2(C)CC[C@@H](O)C[C@@H]12 [Jet mill, classifier speed 4000 rpm]",D16,[2],1.6 µm
same,D84,[2],17 µm
same,D99,[2],36 µm
same,D10,[2],1.3
same,D50,[2],3.8
same,D90,[2],21.7
"CC[C@H]1[C@@H](O)[C@@H]2[C@H](CC[C@]3(C)[C@@H]([C@H](C)CCC(=O)O)CC[C@@H]23)[C@@]2(C)CC[C@@H](O)C[C@@H]12 [Jet mill, classifier speed 5000 rpm]",D16,[2],1.7 µm
same,D84,[2],15.2 µm
same,D99,[2],55.8 µm
same,D10,[2],1.3
same,D50,[2],4.2
same,D90,[2],18.9
"CC[C@H]1[C@@H](O)[C@@H]2[C@H](CC[C@]3(C)[C@@H]([C@H](C)CCC(=O)O)CC[C@@H]23)[C@@]2(C)CC[C@@H](O)C[C@@H]12 [Jet mill, classifier speed 10000 rpm]",D16,[2],1.4 µm
same,D84,[2],4.7 µm
same,D99,[2],9 µm
same,D10,[2],1.1
same,D50,[2],2.7
same,D90,[2],5.6
CC[C@H]1[C@@H](O)[C@@H]2[C@H](CC[C@]3(C)[C@@H]([C@H](C)CCC(=O)O)CC[C@@H]23)[C@@]2(C)CC[C@@H](O)C[C@@H]12 [OCA Example # 1],Dv (10),[2]; After jet-milling (micronized),0.7 µm
same,Dv (50),[2]; After jet-milling (micronized),6.1 µm
same,Dv (90),[2]; After jet-milling (micronized),18.8 µm
same,Dv (99),[2]; After jet-milling (micronized),30.8 µm
same,Dv (10),[2]; [4],2.6 µm
same,Dv (50),[2]; [4],26 µm
same,Dv (90),[2]; [4],162 µm
same,Dv (99),[2]; [4],419 µm
same,Surface Area (m^2/kg),[3]; After jet-milling (micronized),3178 m^2/kg
same,Surface Area (m^2/kg),[3]; [4],1557 m^2/kg
CC[C@H]1[C@@H](O)[C@@H]2[C@H](CC[C@]3(C)[C@@H]([C@H](C)CCC(=O)O)CC[C@@H]23)[C@@]2(C)CC[C@@H](O)C[C@@H]12 [OCA Example # 2],Dv (10),[2]; After jet-milling (micronized),0.6 µm
same,Dv (50),[2]; After jet-milling (micronized),4.4 µm
same,Dv (90),[2]; After jet-milling (micronized),17.8 µm
same,Dv (99),[2]; After jet-milling (micronized),34.6 µm
same,Dv (10),[2]; [4],1.8 µm
same,Dv (50),[2]; [4],19 µm
same,Dv (90),[2]; [4],231 µm
same,Dv (99),[2]; [4],509 µm
same,Surface Area (m^2/kg),[3]; After jet-milling (micronized),3848 m^2/kg
same,Surface Area (m^2/kg),[3]; [4],1854 m^2/kg
CC[C@H]1[C@@H](O)[C@@H]2[C@H](CC[C@]3(C)[C@@H]([C@H](C)CCC(=O)O)CC[C@@H]23)[C@@]2(C)CC[C@@H](O)C[C@@H]12 [OCA Example # 3],Dv (10),[2]; After jet-milling (micronized),0.7 µm
same,Dv (50),[2]; After jet-milling (micronized),4.9 µm
same,Dv (90),[2]; After jet-milling (micronized),14.1 µm
same,Dv (99),[2]; After jet-milling (micronized),25.9 µm
same,Dv (10),[2]; [4],5.3 µm
same,Dv (50),[2]; [4],39 µm
same,Dv (90),[2]; [4],221 µm
same,Dv (99),[2]; [4],513 µm
same,Surface Area (m^2/kg),[3]; After jet-milling (micronized),3412 m^2/kg
same,Surface Area (m^2/kg),[3]; [4],809 m^2/kg
CC[C@H]1[C@@H](O)[C@@H]2[C@H](CC[C@]3(C)[C@@H]([C@H](C)CCC(=O)O)CC[C@@H]23)[C@@]2(C)CC[C@@H](O)C[C@@H]12 [Unmilled API (no comil)],D10,[2],4.8 and 3.3
same,D50,[2],218.6 and 167.7
same,D75,[2],335.7 and 273.7
same,D90,[2],427.6 and 355.6
same,D95,[2],472.6 and 398.2
same,D10,[2]; listed as Unmilled API,4.8
same,D50,[2]; listed as Unmilled API,218.6
same,D90,[2]; listed as Unmilled API,427.6
